Measured values from patent publication US10287585B2, “Therapy” (priority 2015, dated 2019).
Entries after “also recorded” stand apart in the source; their conditions may differ.

How the values were obtained:
Format in all cases: in vivo
E. coli CFT073 [1] = test: Treatment of Irf3−/− mice after intravesical E. coli CFT073 infection: Irf7 siRNA compared with antibiotic therapy (Example 5); conditions: for number (frequency) of abscesses: siRNA intravenously and intravesically 24 hours and 4 days after infection, vs untreated
Protocol: Irf7 siRNA treatment was compared with antibiotic therapy. Groups of 6 Irf3^−/− mice were treated intravenously and intravesically with siRNA as described in Example 3, 24 hours and 4 days after intravesical infection with E. coli CFT073. The 24 hour time point corresponds to the time of acute symptoms, when patients are first diagnosed with febrile urinary tract infection (UTI) and treatment is initiated.
Also at that time, and following infection with E. coli CFT073, Irf3 mice were treated with the third-generation cephalosporin broad-spectrum antibiotic, Cefotaxime (STRAGEN Nordic A/S) at a dose of 100 or 400 mg/kg body weight. Cefotaxime was given by intraperitoneal injection twice a day for 6 days starting 24 hours after infection.
After 7 days, the mice were sacrificed, and kidney pathology and inflammation as quantified by neutrophil numbers in urine was assessed. Bacterial clearance was also assessed in SiRNA treated mice by measuring bacterial counts in urine. The results are shown in FIGS. 9A-E and 10A-D respectively.

E. coli CFT073 [2] = test: Irf7 siRNA therapy given before intravesical E. coli CFT073 infection of susceptible Irf3−/− mice (Example 3)
Protocol: Anesthetized mice (Isofluoran) were infected by intravesical inoculation with E. coli CFT073 (10^8 CFU in 0.1 mL) as described (Hagberg et al., Infection and immunity (1983) 40, 273-283). Overnight static cultures of E. coli CFT073 in Luria broth were used for animal inoculations.
Animals were sacrificed after 7 days under anesthesia, kidneys were aseptically removed and macroscopic pathology was documented by photography. Tissues were divided for RNA extraction (on dry ice), histology and immunostaining (in O.C.T. compound, VWR) and frozen in separate vials at −80° C. Infection was assessed by viable counts of homogenized whole kidney (in 5 mL PBS). Urine samples were collected prior to and at regular times after infection and quantitatively cultured. Neutrophil numbers were quantified in uncentrifuged urine by use of a hemocytometer.
siRNA therapy was used to confirm the role of Irf7 in pathology. Irf3^−/− mice were subjected to siRNA treatment at a dose of 5 mg/kg. A dose (300 μL) of Silencer Select Pre-designed Irf7 siRNA (Life Technologies, 4404010 #s79411) was injected into the tail vein (200 μL) and intravesically (100 μL), three days prior to and on the day of infection with Invivofectamine reagent (Life Technologies, 1377501) (FIG. 5A). The siRNA used was as follows:
(§1) Ambion In Vivo Negative Control siRNA was given as a control (Life Technologies, 4457287). For transcriptomic analysis, total RNA was isolated from the kidney of Irf3^−/− mice using mirVana miRNA Isolation Kit (Ambion by Life Technologies) followed by organic extraction using Acid-Phenol:Chloroform. The analysis was done in-house using Mouse Genome 430 PM array strips and GeneAtlas system (Affymetrix).
After 7 days following infection, mice were sacrificed. The disease phenotype was defined by macroscopic kidney pathology, number of abscesses, bacterial counts in urine and kidneys, urine neutrophil numbers and tissue imaging (FIGS. 5B and 5D). Irf7 siRNA-treated mice were compared to infected controls receiving irrelevant siRNA with Invivofectamine® or no treatment.

[3] = system: pro-inflammatory genes and pathology network genes; test: Whole genome transcriptomic analysis of kidneys from Irf7 siRNA treated mice
Description: as §1

IRF-7 = test: Immunohistochemistry of IRF-7 in renal pelvic mucosa of siRNA treated mice; conditions: Irf3−/− mice, 7 days after infection
STAT3 = test: Immunohistochemistry of submucosal STAT3 in kidneys of siRNA treated mice; conditions: Irf3−/− mice, 7 days after infection
[4] = abscesses, 7 days after infection
[5] = siRNA 24 hours and 4 days after infection, 7 days
[6] = Irf3−/− mice, siRNA 5 mg/kg three days prior to and on the day of infection, 7 days after infection
[7] = immunohistochemistry 7 days after infection, vs negative control siRNA treated or untreated Irf3−/− mice
[8] = kidneys of Irf7 siRNA treated Irf3−/− mice infected with CFT073 vs untreated controls
[9] = Cefotaxime 100 or 400 mg/kg intraperitoneal twice a day for 6 days starting 24 hours after infection, 7 days

Compound: Irf7 siRNA: Silencer Select Pre-designed Irf7 siRNA (Life Technologies, 4404010 #s79411); sense GUGUUUACGAGGAACCCUAtt, antisense UAGGGUUCCUCGUAAACACgg; delivered with Invivofectamine (sense GUGUUUACGAGGAACCCUATT; antisense UAGGGUUCCUCGUAAACACGG; chemistry not given here)
- effect compared with 100 mg/kg of Cefotaxime (E. coli CFT073 [1]; [4]): similar
- effect compared with 400 mg/kg of Cefotaxime (E. coli CFT073 [1]; [4]): lower
- bacterial counts in urine (bacterial clearance) (E. coli CFT073 [1]; [5]): lower
- neutrophil numbers in urine (magnitude of the neutrophil infiltrate) (E. coli CFT073 [1]; [5]): reduced
- neutrophil numbers in urine (magnitude of the neutrophil infiltrate) (E. coli CFT073 [1]; siRNA 24 hours and 4 days after infection, 7 days, listed as SiRNA): significantly reduced
- number (frequency) of abscesses (E. coli CFT073 [1]; 7 days after infection): reduced
- number (frequency) of abscesses (E. coli CFT073 [1]; 7 days after infection, listed as SiRNA): significantly reduced
- macroscopic kidney pathology and tissue damage (E. coli CFT073 [2]; Irf3−/− mice, siRNA 5 mg/kg tail vein + intravesically, three days prior to and on the day of infection, 7 days after infection, vs irrelevant siRNA or untreated): Reduction
- bacterial counts in urine and renal tissue (E. coli CFT073 [2]; [6]): reduction; also recorded: lower
- neutrophil recruitment (neutrophil numbers in urine) (E. coli CFT073 [2]; [6]): reduction; also recorded: reduced
- frequency of abscesses (E. coli CFT073 [2]; Irf3−/− mice, siRNA three days prior to and on the day of infection, 7 days after infection, n=3-8): reduced
- bacterial staining, frozen kidney tissue sections (E. coli CFT073 [2]; [7]): markedly reduced
- neutrophil staining, frozen kidney tissue sections (E. coli CFT073 [2]; [7]): markedly reduced
- pathology-associated gene expression ([3]; Irf7 siRNA treated mice, as stated in Example 5): absence
- Tlr4 expression [3, 8]: activated
- expression of pro-inflammatory genes and transcriptional regulators (chemokines, Irf7, Stat3, Jun) [3, 8]: suppressed
- transcript levels overall and of pathology-associated genes (Stat3, S100a8, Cxcl2, Junb) ([3]; kidneys of siRNA treated Irf3−/− mice): suppressed
- mucosal IRF-7 expression (staining) in renal pelvic mucosa (IRF-7): Suppression; also recorded: Inhibition
- mucosal IRF-7 expression (staining) in renal pelvic mucosa (IRF-7; listed as siRNA): Reduced
- submucosal STAT3 staining (STAT3): reduced; also recorded: inhibited

Compound: CO/N=C(\C(=O)N[C@@H]1C(=O)N2C(C(=O)O)=C(COC(C)=O)CS[C@H]12)c1csc(N)n1 [Cefotaxime, reference compound]
- frequency of abscesses (E. coli CFT073 [1]; [9]): reduced
- neutrophil numbers in urine (inflammation) (E. coli CFT073 [1]; [9]): reduced
